Assay in all cases: growth of human tumour cells (NCI), 48 h
For test [1], the system named is TK-10 renal.
In test [2] the test system is SW-620 colon.
Test [3] deals with NCI-H226 lung.
Test [4] deals with MDA-MB-231 breast.
In test [5] the test system is SNB-19 CNS.
Test [6] relates to HS 578T breast.
Test [7] relates to SF-268 CNS.
In test [8] the test system is U251 CNS.
Test [9] deals with UACC-257 melanoma.
The subject of test [10] is DU-145 prostate.

This passage reports TGI results from PubChem BioAssay (NCI).

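Five compound concentrations were applied to cells in 96-well plates for 48 hours; endpoints were derived by simple linear interpolation of the resulting dose-response curve. TGI is the concentration that stops growth completely.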

Regarding `CC1Cn2c(nc3ccccc32)NC1=O` (centres undefined), the TGI in test [1], in [2], in test [3], in [4], in test [5] and in test [6] was over 100 µM each time. For the same compound, the TGI in test [7], in test [8] and in [9] was over 100 µM each time.
As for `NCCSc1nc2ccccc2c(=O)n1-c1ccccc1`, the TGI in [1] was over 100 µM; in [2], over 100 µM; in test [3], over 100 µM; in test [4], over 100 µM; in test [5], 57.1 µM; in test [8], over 100 µM. In test [9], this compound had a TGI of over 100 µM.
Turning to `O=c1[nH]/c(=C/c2ccc(OCc3ccccc3)cn2)c(=O)[nH]/c1=C/c1ccc(O)cc1`, the TGI is 3.03 µM in test [1]; over 100 µM in test [2]; over 100 µM in test [3]; over 100 µM in test [4]; over 100 µM in test [5]; over 100 µM in test [6]. Also, the TGI in test [8] is over 87.9 µM; in [9] it was over 100 µM.
For `C1CCC2C(C1)CCCC2NC1=NCCO1` (centres undefined), the TGI in test [1], in [2], in test [3], in test [4], in test [10] and in test [5] was over 100 µM in each case. The TGI in [7], in [8] and in test [9] was over 100 µM throughout.
With `O=C1c2ccccc2C(=O)N1Cc1ccccc1-c1c2nc(c(-c3ccccc3CN3C(=O)c4ccccc4C3=O)c3ccc([nH]3)c(-c3ccccc3CN3C(=O)c4ccccc4C3=O)c3nc(c(-c4ccccc4CN4C(=O)c5ccccc5C4=O)c4ccc1[nH]4)C=C3)C=C2`, the TGI in [1], in test [2], in test [3], in test [7], in test [8] and in test [9] was over 100 µM each time.
For `NC1=NS(=O)(=O)Nc2nc(-c3ccc(Cl)cc3)c(-c3ccc(Cl)cc3)nc21`, the TGI in test [1], in test [2], in test [5], in test [7], in [8] and in test [9] was over 100 µM in each case.
Turning to `Cc1ccc(S(=O)(=O)OCC(=O)O)cc1`, the TGI in test [1], in test [2], in test [4], in test [10], in test [5] and in test [6] was over 100 µM each time. The TGI in test [7], in test [8] and in [9] was over 100 µM throughout.
In the case of `O=C1CCCCC(=O)OC2(CCCCC2=O)CC1` (centres undefined), the TGI in [1], in test [2], in test [3], in [4], in test [10] and in test [7] was over 100 µM in each case. Besides, the TGI in test [8] and in test [9] was over 100 µM each time.
As to `NC1=NS(=O)(=O)Nc2nc(-c3ccc([N+](=O)[O-])cc3)[nH]c21`, the TGI in [1], in test [2], in test [5], in test [7] and in test [8] was over 100 µM each time.
As for `Nc1c(Cl)ncnc1N[C@@H]1C[C@H]1CO`, the TGI in test [1], in [2], in test [4], in test [10], in [5] and in test [6] was over 100 µM in each case. Further, the TGI in [7], in test [8] and in test [9] was over 100 µM throughout.
With `Cc1cc(C)[n+](CCOc2ccc(/C(=C(/Cl)c3ccccc3)c3ccccc3)cc2)c(C)c1`, the TGI came to 13.1 µM in test [1]; 11.1 µM in test [2]; 6.37 µM in [3]; 5.21 µM in test [5]; 7.55 µM in test [7]; 4.14 µM in [8]. In addition, in [9], the TGI turned out to be 3.28 µM.
With `Cc1ccc2c(c1)[nH]c1cc(C(F)(F)F)ccc1[p+]2=O` (centres undefined), the TGI was over 100 µM in test [1]; over 100 µM in test [2]; 70.5 µM in test [3]; 49.1 µM in test [4]; over 100 µM in [10]; 76.7 µM in test [5]. In addition, the TGI in test [7] is over 100 µM; in test [8], over 100 µM; in test [9], 66 µM.
As to `NC1=NS(=O)(=O)Nc2nc(-c3ccc([N+](=O)[O-])o3)[nH]c21`, the TGI in [1] was determined as 33 µM; in test [2], 35.4 µM; in test [5], 35.9 µM; in [7], 38.7 µM; in [8] it was 31.7 µM.
As for `CC(=O)OC1CC2C(C)(C)OC(=O)CC(OC(C)=O)[C@]2(C)C2CCC3(C)C(=CCC3[C@H]3COC(=O)C3)[C@]12C` (some centres undefined), the TGI in test [1], in test [2], in test [3], in test [5], in [7] and in [8] was over 100 µM throughout.
On to `COc1cc(Nc2c3ccccc3nc3ccccc23)ccc1NS(C)(=O)=O`, for which the TGI in test [2] is over 100 µM; in test [3] it was 23.5 µM; in test [5], 48 µM; in test [7], 25.5 µM; in [8] it was 25.2 µM; in [9], 24.2 µM.
Consider `CCc1ccc2oc(-c3cc(O)c(-c4nc5cc(CC)ccc5o4)cc3O)nc2c1`, for which the TGI in [1], in [2], in test [3], in [4], in [10] and in [5] was over 100 µM in each case. The TGI in test [6], in [7] and in test [8] was over 100 µM throughout.
As to `CC(C)C(=O)/C=C/c1ccc(Br)cc1`, the TGI in test [1] was found to be 32.3 µM; in test [2], 23.1 µM; in test [5], 29.8 µM; in test [7], 48.4 µM; in test [8], 22.9 µM; in [9] it was 30.8 µM.
With `Cc1[nH]c(=O)[nH]c(=O)c1/C=C/C(=O)O`, the TGI in [2], in [3], in test [5], in [7], in [8] and in test [9] was over 1000 µM throughout.
As for `O=C(NCCCCCCNCc1cccc2ccccc12)Nc1cccc2ccccc12`, the TGI in test [1], in test [2], in test [4], in [10], in [5] and in test [6] was over 100 µM in each case. Moreover, the TGI in test [7], in test [8] and in test [9] was over 100 µM in each case.
With `Nc1ccc2[nH]c3c(-c4ccccc4)nccc3c2c1`, the TGI was over 100 µM in test [2]; over 86.1 µM in [3]; over 100 µM in test [5]; over 100 µM in test [7]; over 100 µM in [8]; over 100 µM in test [9].
Regarding `CCCSc1ccc2[nH]c(/N=C/c3ccco3)cc2c1`, the TGI in test [2], in test [10], in test [5], in test [6], in test [7] and in test [9] was over 100 µM in each case.
For `COC(=O)C1=C2SCc3cccc(c3)CSC3=C(C(=O)OC)SC(=C(S2)S1)S3`, the TGI in [1] was over 100 µM; in test [2], over 100 µM; in [3] it was over 100 µM; in test [4], 74.9 µM; in [10], over 100 µM; in test [5] it was over 100 µM. For the same compound, the TGI in [8] and in [9] was over 100 µM in each case.
Take `O=C1c2ccccc2CCCCCCCCCCC12OCCCO2`: the TGI in test [1] is over 100 µM; in test [3] it was 97.2 µM; in test [5], 77.5 µM; in [7], 96.7 µM; in [8], over 100 µM; in test [9], 72.7 µM.
`CC(=O)Nc1cc2c(s1)CCC1CC(=O)NN=C21` (centres undefined): the TGI in test [1], in [2], in test [3], in test [5], in [7] and in [8] was over 100 µM each time.
For `COC(=O)C1=C(C(=O)OC)SC2(S1)C1=C(CCCC1)SC(C(=O)OC)=C2C(=O)OC`, the TGI in [1] was 24.7 µM; in test [2], 17.1 µM; in test [4], 29.3 µM; in test [10] it was 3.54 µM; in test [5] it was 30.2 µM; in [6], 30.7 µM. In addition, the TGI was found to be 22.3 µM in [7], 19.4 µM in [8] and 28.9 µM in test [9].
Turning to `COC(=O)[C@@H]1CCCN1CCN1CCC[C@H]1C(=O)OC`, the TGI in test [1], in [2], in test [4], in test [10], in test [5] and in [7] was over 100 µM throughout. The compound further had a TGI in [8] of over 100 µM.
For the compound `Nn1c(CCCCCCCCc2nnc(COc3ccc(Cl)cc3)n2N)nnc1COc1ccc(Cl)cc1`, the TGI in test [1], in test [2], in test [3], in [4], in test [10] and in test [5] was over 100 µM throughout. Further, the TGI in test [7], in test [8] and in test [9] was over 100 µM in each case.
As to `CN(NC(=O)c1cccs1)C1=NCCCN1`, the TGI in test [1], in test [2], in [3], in test [4], in [5] and in test [6] was over 100 µM in each case. The TGI in [7], in test [8] and in [9] was over 100 µM throughout.
For the compound `Nc1ccc(N=Nc2ccccc2)cc1`, the TGI in test [1] was over 100 µM; in test [2] it was over 100 µM; in test [3] it was over 100 µM; in test [4] it was 88 µM; in test [5] it was over 100 µM; in [6] it was over 100 µM. Also, the TGI in [8] and in test [9] was over 100 µM throughout.
With `O=C(NC(Cc1ccc(I)cc1)C(=O)O)c1ccc(Br)cc1` (centres undefined), the TGI in test [2], in test [3], in [5], in test [7], in [8] and in [9] was over 100 µM throughout.
`Cc1cc(C2(O)C=C(C(C)(C)C)C(=O)C(C(C)(C)C)=C2)c(C)cc1C1(O)C=C(C(C)(C)C)C(=O)C(C(C)(C)C)=C1`: the TGI in [1], in test [2], in test [3], in [4], in test [10] and in test [5] was over 100 µM in each case. Also, the TGI in test [7], in test [8] and in [9] was over 100 µM each time.
Regarding `CNC(=O)Oc1ccc(-c2cn3cc(OC(=O)NC)ccc3n2)cc1`, the TGI in [1], in test [2], in test [3], in [4], in test [10] and in test [5] was over 100 µM each time. The TGI in test [7] is 75 µM; in test [8], over 100 µM; in [9], over 100 µM.
With `Cc1cn(C2CC(n3cc(Cn4cc(Br)c(=O)[nH]c4=O)nn3)C(CO)O2)c(=O)[nH]c1=O` (centres undefined), the TGI in test [1], in test [2], in [4], in test [10], in test [5] and in [6] was over 100 µM each time. Moreover, the TGI in [7], in [8] and in test [9] was over 100 µM in each case.
Consider `COC(=O)C1=CC(=O)OC1(OO)c1ccccc1` (centres undefined), for which the TGI in test [1], in test [2], in test [3], in [4], in [10] and in [5] was over 100 µM each time. Further, the TGI in [8] and in test [9] was over 100 µM each time.
